Papp and logD data for 17 compounds are collected here from ChEMBL document CHEMBL1138393, “Structure-activity relationships of novel non-competitive mGluR1 antagonists: a potential treatment for chronic pain” (Bioorg Med Chem Lett, 2007).

Each structure is given as a SMILES string.

The first data set in a line: Permeability in artificial membrane assessed as diffusion rate by PAMPA assay. It counts as ADME. The settings on record: read-out: permeability. In general terms: In PAMPA a lipid-coated filter parts donor from acceptor wells.
Regarding `C[C@H]1CC[C@H](NC(=O)c2cnc(N3CCC(CO)CC3)cn2)CC1`, the Papp came out at 25.5 ×10⁻⁶ cm/s.

The nature of the next data set: Lipophilicity, log D of the compound. The class given is physicochemical. The settings on record: octanol/water.
As for `CC(C)(CNC(=O)c1cnc2ccccc2n1)c1ccccc1`, the logD is 4. Take `CC(C)(CNC(=O)c1cncc(N2CCCCC2)n1)c1ccccc1`: the logD is 4.4.

Take `O=C(NCC1CC1)c1cncc(N2CCCN(Cc3ccccc3)CC2)n1`: the logD worked out at 3. In turn, `C[C@H]1CC[C@H](NC(=O)c2cnc(N3CCCCC3)cn2)CC1` showed a logD of 4.4. In the case of `O=C(NC1CCCCCC1)c1cnc(N2CCCCC2)cn1`, the logD turned out to be 3.9. As for `C[C@H]1CC[C@H](NC(=O)c2cnc(N3CCC(CO)CC3)cn2)CC1`, the logD came to 3.3. On the same count and under the same terms, in the case of `CC(C)(CNC(=O)c1cncc(N[C@@H](CO)c2ccccc2)n1)c1ccccc1` it was 3.6; in that of `CC(CN(C)C)N(C)c1cnc(C(=O)NCC(C)(C)c2ccccc2)cn1` (stereo not drawn), 2. Regarding `CC(C)(CNC(=O)c1cnc(N2CCC(CO)CC2)cn1)c1ccccc1`, the logD was 3.5. The same measure, in the same setting: in the case of `CC(C)(CNC(=O)c1cncc(-c2ccccc2)n1)c1ccccc1` it was 2.6; in that of `CC(C)(CNC(=O)c1cnc(-c2ccccc2)cn1)c1ccccc1`, 3.4. Still for that read-out and setting: for `CCN(C)c1cncc(C(=O)NC2Cc3ccccc3C2)n1` the value was 3.6; for `CN(CCO)c1cncc(C(=O)NCC(C)(C)c2ccccc2)n1`, 2.7; for `O=C(NCC1CC1)c1cncc(NCCc2cccc(O)c2)n1`, 3.2. As to `CN(CCC#N)c1cnc(C(=O)NCC(C)(C)c2ccccc2)cn1`, the logD is 2.9. On to `CCCCN(C)c1cncc(C(=O)NC2CCCCCC2)n1`, for which the logD was 3.8. As to `CC(C)(CNC(=O)c1cnc(N2CCCCC2)cn1)c1ccccc1`, the logD was determined as 4.5.

What is called logD is lipophilicity at a set pH, counting ionised and neutral species.
